SMILES strings stand for the structures. Where two headings read alike, the source gives them in different places. Marks after values point to notes of the source that are not given here.

Data set [1] has as its system PCP-induced hyperlocomotion in male NMRI mice. Kind of data set: Phencyclidine (PCP)-induced hyperlocomotion in mice (video tracking). Type of data set: in vivo. The following applies: for ED50: Mus musculus, read-out: Mice ED50 (mg/kg) PCP-Inh.; for Mice ED50 (mg/kg) PCP-Inh., estimated ED50 (footnote a) / Mice ED50 (mg/kg) PCP-Inh.: inhibition of PCP-induced hyperlocomotion; for Mice ED50 (mg/kg) PCP-Inh., estimated ED50 (footnote a): estimated ED50 values (n = 3 per dose; 4-fold separation between doses); for Mice ED50 (mg/kg) PCP-Inh.: dose at which 50% of the tested animals show the effect. The method, then:
Motor Activity (Video Tracking)
Apparatus and General Procedure
On the day of experiments, the mice were brought into the procedural room. They were housed individually and allowed to acclimate for at least a half hour prior to testing. Although the studies were conducted during the light cycle (from 8:00 to 16:00 h), the procedure room was only sparsely lit (3 to 30 LUX) to provide better contrast for the video tracking. Local lighting was used for the injection procedures. During each trial, an individual mouse was placed in an open field arena (grey PVC cylinder with a height of 40 cm and a diameter of 22.5 cm). Each arena was placed on an infrared LED (8×8 LEDs)-lit box (white PVC squared box; 40×40 cm^2; height 12.5 cm). Each mouse was placed in the center of the arena and allowed to explore freely for 30 min. After each trial, the arena was cleaned with a wet and subsequently with a dry cleaning cloth. An infrared sensitive tube camera and a white light source (in arena: 4-7 LUX) were mounted to the ceiling above the observation chamber to record and input activity to a computer. Animal behavior was recorded and analyzed using the Noldus Ethovision XT Video Tracking System (Version 3.1; Noldus, Wageningen, The Netherlands). The total distance traveled (cm) was calculated. Data were then exported to data management systems for further analysis and reporting.
Phencyclidine (PCP)-Induced Hyperlocomotion in Mice
Test compound or solvent was administered at a pre-defined time before measurement (standard: 30 min) to male NMRI mice that were challenged with phencyclidine (PCP; 5 mg/kg, s.c.) 30 min before measurement. Activity was measured for a period of 30 min.

The target of another data set is T1, human mGluR2 receptor (Homo sapiens, UniProt Q14416).
T1 construct: expressed in transfected cells; host or cells: CHO cells
Kind of data set: [35S]GTPγS binding assay, positive allosteric modulation (GTPγS-PAM) in presence of EC20 glutamate. Type of data set: biochemical. The following applies: in presence of glutamate at EC20, average pEC50 if more experiments, ‡ means tested once; for EC50: read-out: GTPγS - hR2 PAM pEC50 (converted). The gist of the method: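 Membranes from butyrate-stimulated CHO cells expressing human mGluR2 (7 μg protein) preincubated 30 min at 30°C with compound plus ~EC20 glutamate in HEPES pH 7.4, 100 mM NaCl, 3 mM MgCl2, 10 μM GDP, 10 μg/ml saponin. [35S]GTPγS (0.1 nM) incorporation over 30 min at 30°C measured by filtration and scintillation counting.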
Background: Binding of GTPγS marks nucleotide exchange on a G protein.

For data set [2], the system named is memantine-induced 2DG uptake in mouse brain (hippocampus). Kind of data set: Reversal of memantine-induced brain activation ([14C]2DG uptake) in mice. It is filed as in vivo. The following applies: for L.A.D. (lowest active dose for significant reduction of 2DG uptake in hippocampus vs memantine response): mice C57BL/6, s.c., memantine 20 mg/kg s.c., p<0.05. As for the experimental part: Reversal of Memantine-Induced Brain Activation in Mice
NMDA receptor hypofunction is hypothesized to be involved in schizophrenia.
Autoradiographic assessment of radiolabeled [^14C]-2-deoxyglucose ([^14C]2DG) uptake is commonly used to investigate brain activation. In humans, cerebral blood flow is increased in specific brain regions after administration of a subanaesthetic dose of ketamine.
Male mice (C57BL/6, weight 24-28 g, fasted overnight; n=10 animals per group) were treated with vehicle or test compound (s.c.) in randomized order (t=0 min). Memantine (20 mg/kg, s.c.) was injected 30 min later (t=30 min). At t=45 min, [^14C]2DG (0.16 μCi/g) was administered intraperitoneally (i.p.), followed by a 45 min uptake period. Animals were decapitated (t=90 min), plasma glucose levels measured, the brain removed, rapidly frozen and stored at −20° C. until sectioned. Brain sections were exposed together to a precalibrated [^14C]standard on film, which was developed after four days of exposure. Local tissue [^14C]concentration (nCi/mg tissue equivalent—TEQ—) in each region of interest was determined.
Data was analyzed statistically using a two-way ANOVA analysis followed by post-hoc tests (memantine response versus reversal by the compound). The results are shown in table 5 below, expressed as lowest active dose (L.A.D.) required to exert a statistically significant (p<0.05) reduction of 2DG uptake in the hippocampus compared to memantine response.

Data set [3] concerns conditioned avoidance response in male Wiga Wistar rats. Kind of data set: Conditioned avoidance response (CAR) test in rats. It is filed as in vivo. The following applies: for ED50: Rattus norvegicus, po, read-out: ED50 (mg/kg) CAR-Inh. The source says: Conditioned Avoidance Response (CAR) Test
The apparatus consisted of an inner box surrounded by an outer box. The inner box was composed of four walls of transparent, synthetic material (length×width×height: 30×30×30 cm), an open top, and a grid floor made of 15 pairs of iron bars (2 mm diameter; 6 mm inter-bar distance). Odd and even bars were connected with a source of alternative current (1.0 mA; Coulbourn Instruments Solid State Shocker/Distributor), which could be interrupted by a switch. The outer box was composed of the same material (length×width×height: 40×40×36 cm), also with an open top, with a distance of 5 cm between the inner and outer box on all sides. To decrease the amount of environmental stimuli, three walls of the outer box were made non-transparent. The front wall was left transparent to allow the necessary inspection of the animal during the test. The upper edge of the outer and inner box served as a target for the rats on which to jump with fore- and hind-paws, respectively.
Avoidance Conditioning and Selection of Animals
From their arrival in the laboratory on the experimental day, male Wiga Wistar rats (230±30 g) were housed in individual cages provided with bedding material.
Latency to avoidance was recorded. The median avoidance response obtained over the three experimental sessions for each rat were used for further calculations.

[4] abbreviates: not marked * (not oral; injection per method); b) = estimated ED50 values (n = 3 per dose).
Where [5] appears, read: compound administered orally (*); a)/b) = estimated ED50 values.

T1 sequence (Q14416 19-872): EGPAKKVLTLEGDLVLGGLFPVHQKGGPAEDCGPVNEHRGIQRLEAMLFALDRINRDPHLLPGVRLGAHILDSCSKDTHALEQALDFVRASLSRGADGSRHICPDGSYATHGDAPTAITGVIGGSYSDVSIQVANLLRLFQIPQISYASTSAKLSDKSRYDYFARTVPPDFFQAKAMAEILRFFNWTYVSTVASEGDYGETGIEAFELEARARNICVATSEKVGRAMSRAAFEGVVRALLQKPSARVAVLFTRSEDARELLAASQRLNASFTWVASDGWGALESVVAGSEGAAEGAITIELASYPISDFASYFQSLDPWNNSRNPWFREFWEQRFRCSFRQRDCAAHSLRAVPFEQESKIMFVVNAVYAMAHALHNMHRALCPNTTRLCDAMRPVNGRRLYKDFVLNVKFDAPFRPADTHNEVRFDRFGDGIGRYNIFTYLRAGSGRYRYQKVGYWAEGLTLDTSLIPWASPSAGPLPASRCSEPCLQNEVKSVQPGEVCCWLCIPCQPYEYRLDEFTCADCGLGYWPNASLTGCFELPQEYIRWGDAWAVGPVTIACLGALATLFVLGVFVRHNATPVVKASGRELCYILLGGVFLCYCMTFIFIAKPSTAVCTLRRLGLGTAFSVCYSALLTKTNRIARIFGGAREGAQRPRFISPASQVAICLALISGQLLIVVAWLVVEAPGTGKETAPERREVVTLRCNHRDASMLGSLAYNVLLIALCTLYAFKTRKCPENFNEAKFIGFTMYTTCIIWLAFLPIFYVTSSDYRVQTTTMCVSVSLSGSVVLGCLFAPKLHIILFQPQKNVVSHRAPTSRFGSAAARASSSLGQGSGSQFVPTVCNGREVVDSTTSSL

For `FC(F)(F)c1c(N2CCC3(CC2)COc2ccccc23)ccn2c(CC3CC3)nnc12` [compound 17, 1′-[3-cyclopropylmethyl-8-(trifluoromethyl)[1,2,4]triazolo[4,3-a]pyridin-7-yl]-spiro[1-benzofuran-3,4′-piperidine]], the melting point (commonly the temperature, or range, at which the solid turns liquid) is above 300 °C. For the same molecule, in data set [1], the ED50 was 15.2 mg/kg and the “inhibition of PCP-induced hyperlocomotion in mice (in words)” value (shortened to “inhibition … in mice (in words)”) is reported as “inhibited”. Moreover, the EC50 at human mGluR2 receptor is 35.5 nM.

Take `O=C(CCCN1CCC(O)(c2ccc(Cl)cc2)CC1)c1ccc(F)cc1` [haloperidol, reference compound]: the “effect on memantine-induced brain glucose metabolism / 2DG uptake (in words)” value in data set [2] (mouse brain, reference drugs) was “inactive”.

`CC(c1ccn2c(CC3CC3)nnc2c1C(F)(F)F)N1CCC(c2ccccc2)CC1` (centres unmarked) [compound 244, 3-cyclopropylmethyl-7-[1-(4-phenyl-1-piperidinyl)ethyl]-8-trifluoromethyl-1,2,4-triazolo[4,3-a]pyridine] registered a melting point of 142.3 °C. Further, the “Mice ED50 (mg/kg) PCP-Inh., estimated ED50 (footnote a)” value (shortened to “Mice ED50 … (footnote a)”) in data set [1] is given as 5.0 ^a) mg/kg. Further, the EC50 at human mGluR2 receptor was 24 nM.

On to `Fc1ccc(N2CCN(Cc3ccn4c(CC5CC5)nnc4c3C(F)(F)F)CC2)c(F)c1` [compound 224, 3-(Cyclopropylmethyl)-7-[[4-(2,4-difluorophenyl)-1-piperazinyl]methyl]-8-(trifluoromethyl)-1,2,4-triazolo[4,3-a]pyridine], for which, in data set [1], the “inhibition … in mice (in words)” value is listed as “inhibited” and the “Mice ED50 … (footnote a)” value was 2.0 ^a) mg/kg. The “inhibition of the conditioned avoidance response in rats (in words)” value in data set [3] is on record as “inhibited”. The ED50 in data set [3] (setting [4]) was 5 mg/kg.

In turn, `Clc1c(N2CCC(c3ccccc3)CC2)ccn2c(CC3CC3)nnc12` [compound 26, 8-Chloro-3-cyclopropylmethyl-7-[4-phenyl-piperidin-1-yl]-[1,2,4]triazolo[4,3-a]pyridine] displayed a melting point of 194.1 °C. Also, the “GTPγS - hR2 PAM pEC50” value at human mGluR2 receptor came out at 6.99.

Consider `c1ccc(C2CCN(c3ccn4c(CC5CC5)nnc4c3C3CC3)CC2)cc1` [compound 159, 3-Cyclopropylmethyl-8-cyclopropyl-7-(4-phenylpiperidin-1-yl)-[1,2,4]triazolo[4,3-a]pyridine], for which the melting point was above 300 °C. For the same molecule, at human mGluR2 receptor, the EC50 was 204 nM.

In the case of `CC1(c2ccccc2)CCN(c2ccn3c(CC4CC4)nnc3c2C(F)(F)F)CC1` [compound 151], in data set [1], the “inhibition … in mice (in words)” value was “inhibited” and the “Mice ED50 … (footnote a)” value was 12.6 ^a) mg/kg. In addition, the “L.A.D. (lowest active dose for significant reduction of 2DG uptake in hippocampus vs memantine response)” value in data set [2] is recorded as 10 mg/kg, s.c. The “GTPγS - hR2 PAM pEC50” value on human mGluR2 receptor was 7.48.

`FC(F)(F)C1(c2ccccc2)CCN(c2ccn3c(CC4CC4)nnc3c2Cl)CC1` [compound 15, 8-Chloro-3-(cyclopropylmethyl)-7-(4-trifluoromethyl-4-phenyl-piperidin-1-yl)-1,2,4-triazolo[4,3-a]pyridine] yielded a melting point of 276.7 °C. Besides, the ED50 in data set [1] is above 10 mg/kg. Besides, the “GTPγS - hR2 PAM pEC50” value on human mGluR2 receptor turned out to be 6.75. Moreover, the ED50 in data set [3] (setting [5]) was at least 40 mg/kg.

Take `Clc1c(N2CCC3(CC2)OCc2ccccc23)ccn2c(CC3CC3)nnc12` [compound 6, 1′-[8-Chloro-3-(cyclopropylmethyl)-1,2,4-triazolo[4,3-a]pyridin-7-yl]-spiro[isobenzofuran-1(3H),4′piperidine]]: the melting point is 194.5 °C. In addition, the EC50 on human mGluR2 receptor is 129 nM.

Take `C[C@@H]1CN(c2ccn3c(CC4CC4)nnc3c2C(F)(F)F)CCN1c1cc(F)cc(F)c1` [compound 182, 3-(Cyclopropylmethyl)-7-((3R)-4-3,5-difluorophenyl-3-methylpiperazin-1-yl)-(8-trifluoromethyl)-1,2,4-triazolo[4,3-a]pyridine]: the melting point is 147.5 °C. Besides, the EC50 on human mGluR2 receptor is 93.3 nM.

On to `CCc1c(N2CCC(c3ccccc3)CC2)ccn2c(CC3CC3)nnc12` [compound 171, 3-Cyclopropylmethyl-8-ethyl-7-(4-phenylpiperidin-1-yl)-[1,2,4]triazolo[4,3-a]pyridine], for which the melting point is above 300 °C. At human mGluR2 receptor, the EC50 is 251 nM.

Take `FC(F)(F)c1c(N2CCN(c3ccccc3)CC2)ccn2c(CC3CC3)nnc12` [compound 76]: in data set [1], the “inhibition … in mice (in words)” value was “inhibited” and the “Mice ED50 (mg/kg) PCP-Inh.” value is given as 3.1^ mg/kg. Also, the “GTPγS - hR2 PAM pEC50” value on human mGluR2 receptor was 6.93. Moreover, the “ED50 (mg/kg) CAR-Inh.” value in data set [3] (setting [5]) was ≥40* mg/kg.

Molecule `N#Cc1c(N2CCC(c3ccccc3)CC2)ccn2c(CN3CCOCC3)nnc12` [compound 11] yielded a melting point of 300 °C. Besides, at human mGluR2 receptor, the EC50 is 7590 nM.

With `FC(F)(F)c1c(CN2CCC(c3ccccc3)CC2)ccn2c(CC3CC3)nnc12` [compound 298, 3-(Cyclopropylmethyl)-7-[(4-phenyl-1-piperidinyl)methyl]-8-(trifluoromethyl)-1,2,4-triazolo[4,3-a]pyridine], in data set [1], the “inhibition … in mice (in words)” value is listed as “inhibited” and the “Mice ED50 … (footnote a)” value was 5.0 ^a) mg/kg. Besides, the “inhibition of the conditioned avoidance response in rats (in words)” value in data set [3] was “inhibited”. Besides, in data set [3] (setting [4]), the ED50 was 5 mg/kg.

Turning to `FC(F)(F)c1c(N2CCC(c3ccccc3)CC2)ccn2c(Cc3ccccn3)nnc12` [compound 153, 8-Trifluoromethyl-3-(2-pyridinylmethyl)-7-(4-phenylpiperidin-1-yl)-1,2,4-triazolo[4,3-a]pyridine], the melting point is above 300 °C. Besides, the EC50 at human mGluR2 receptor is 195 nM.

In the case of `FC(F)(F)Cc1nnc2c(Cl)c(N3CCC4(CC3)COc3ccccc34)ccn12` [compound 98], the “Mice ED50 (mg/kg) PCP-Inh.” value in data set [1] is listed as above 40 mg/kg. Further, the “L.A.D. (lowest active dose for significant reduction of 2DG uptake in hippocampus vs memantine response)” value in data set [2] is ≤10 mg/kg, s.c. Moreover, the “GTPγS - hR2 PAM pEC50” value at human mGluR2 receptor was 6.75.

On to `Clc1c(CN2CCC(c3ccccc3)CC2)ccn2c(CC3CC3)nnc12` [compound 1, 8-Chloro-3-cyclopropylmethyl-7-[(4-phenyl-1-piperidinyl)methyl]-1,2,4-triazolo[4,3-a]pyridine], for which the melting point worked out at 181.8 °C. Moreover, at human mGluR2 receptor, the EC50 is 209 nM.

These data come from patent publication US10071095B2, “1,2,4-triazolo [4,3-A] pyridine derivatives and their use for the treatment of neurological and psychiatric disorders” (JANSSEN PHARMACEUTICALS, INC., priority 2009, dated 2018).
